Results on four compounds are retold here after BindingDB's records for doi:10.1021/jm00164a020 (Merck Sharp & Dohme Research Laboratories, 1990).

For this assay, the target named is Gastrin/cholecystokinin type B receptor (Cavia porcellus). The experiment in a line: Inhibition of binding of [125I]gastrin to Cholecystokinin type B receptor from guinea pig gastric glands.

For orientation: IC50 means the concentration that gives 50% inhibition. Read a high IC50 as a need for much substance. `CCCCCN(CCCCC)C(=O)C(CCC(=O)N1CCCC1)NC(=O)Nc1ccc(Cl)cc1` (centres undefined): the 50% inhibitory concentration (IC50) was 0.43 µM.
In the case of `CCCCCN(CCCCC)C(=O)[C@@H](CCC(=O)O)NC(=O)Nc1cccc(OC)c1` it was 13 µM.
To `O=C(O)CC[C@H](NC(=O)c1cc2ccccc2[nH]1)C(=O)N(C1CCCCC1)C1CCCCC1` belongs 4.1 µM.
Turning to `CCCCCN(CCCCC)C(=O)C(CCC(=O)OCc1ccccc1)NC(=O)Nc1ccc(Cl)cc1` (centres undefined), the IC50 came to 44 µM.
